Results as given in the supplement of paper PMC8671470.
Where a name gives a salt, the structure may show the parent alone.

How the values were obtained:
Details in all cases: 72 h
SHI-1 [1] = assay: cell viability (% survival relative to DMSO control, bortezomib = 0%); higher = less cytotoxic
How it was run: (§1)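 Fifteen myeloid leukaemia cell lines (10 AML, 5 CML) were seeded at a density titrated to the linear growth range into 384-well plates pre-printed with compounds at 1, 10, 100, 1000 or 10000 nM in duplicate. Plates were incubated for 72 h at 37 °C with 5% CO2. Viability was then read by CellTiter-Glo luminescence. Each value is percent survival averaged over the duplicates, with vehicle set to 100% and a 10 µM positive control to 0%.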

HEL [2] = assay: as above
How it was run: as §1

KG-1 [3] = assay: as above
How it was run: as §1

NOMO-1 [4] = assay: as above
How it was run: as §1

KU-812 [5] = assay: as above
How it was run: as §1

K-562 [6] = assay: as above
How it was run: as §1

Mono-Mac-6 [7] = assay: as above
How it was run: as §1

THP-1 [8] = assay: as above
How it was run: as §1

KCL-22 [9] = assay: as above
How it was run: as §1

ML-2 [10] = assay: as above
How it was run: as §1

HL-60 [11] = assay: as above
How it was run: as §1

BV-173 [12] = assay: as above
How it was run: as §1

LAMA-84 [13] = assay: as above
How it was run: as §1

MOLM-13 [14] = assay: as above
How it was run: as §1

MV4-11 [15] = assay: as above
How it was run: as §1

SHI-1 [16] = system: SHI-1
How it was run: (§2)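 Seeded in RPMI 1640 at densities within the linear growth range, fifteen myeloid leukaemia cell lines were dispensed into 384-well plates with acoustically pre-printed compounds spanning five tenfold doses from 1 to 10,000 nM, in duplicate. The plates were kept for 72 h at 37 °C in 5% CO2 before luminescent ATP viability was measured and normalised to vehicle and to a positive control at 10 µM. Curves were fitted with a four-parameter log-logistic model. The IC50 was taken from those curves.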

HEL [17] = system: HEL
How it was run: as §2

KG-1 [18] = system: KG-1
How it was run: as §2

NOMO-1 [19] = system: NOMO-1
How it was run: as §2

KU-812 [20] = system: KU-812
How it was run: as §2

K-562 [21] = system: K-562
How it was run: as §2

Mono-Mac-6 [22] = system: Mono-Mac-6
How it was run: as §2

THP-1 [23] = system: THP-1
How it was run: as §2

KCL-22 [24] = system: KCL-22
How it was run: as §2

ML-2 [25] = system: ML-2
How it was run: as §2

HL-60 [26] = system: HL-60
How it was run: as §2

BV-173 [27] = system: BV-173
How it was run: as §2

LAMA-84 [28] = system: LAMA-84
How it was run: as §2

MOLM-13 [29] = system: MOLM-13
How it was run: as §2

MV4-11 [30] = system: MV4-11
How it was run: as §2

Cc1c2c(=O)n(-c3ccccc3Cl)[nH]c2cc(=O)n1Cc1ccccn1
cell viability [%]
Details	1 nM	10 nM	100 nM	1000 nM	10000 nM
BV-173 [12]	98	104	94.6	95.5	81.4
HEL [2]	77.9	114	88.2	103	106
HL-60 [11]	71	96.2	94.5	90.8	105
K-562 [6]	109	92.5	89.3	77.7	54
KCL-22 [9]	60.5	119	84.4	94.6	106
KG-1 [3]	92.4	105	89.6	102	104
KU-812 [5]	88	101	92	100	98.1
LAMA-84 [13]	93.8	108	100	99.9	99.9
ML-2 [10]	86.5	112	95.4	98.6	101
MOLM-13 [14]	84.7	101	96.7	71.4	38.5
MV4-11 [15]	101	107	89.7	71.9	59.2
Mono-Mac-6 [7]	89	109	96	103	99.5
NOMO-1 [4]	102	111	95.8	100	98.3
SHI-1 [1]	84.3	103	95.7	80.8	75.9
THP-1 [8]	95.8	113	99.1	94.2	96.6

Details	IC50 (cell viability) [µM]
BV-173 [27]	> 10
HEL [17]	> 10
HL-60 [26]	> 10
K-562 [21]	6.52
KCL-22 [24]	> 10
KG-1 [18]	> 10
KU-812 [20]	> 10
LAMA-84 [28]	> 10
ML-2 [25]	> 10
MOLM-13 [29]	2.76
MV4-11 [30]	7.5
Mono-Mac-6 [22]	> 10
NOMO-1 [19]	> 10
SHI-1 [16]	> 10
THP-1 [23]	> 10

CCN(CCO)CCCC(C)Nc1ccnc2cc(Cl)ccc12 (stereo not given) [Hydroxychloroquine sulfate]
cell viability [%]
Details	1 nM	10 nM	100 nM	1000 nM	10000 nM
BV-173 [12]	79.7	107	97.6	84.3	94.8
HEL [2]	89.5	102	99	128	98
HL-60 [11]	125	101	96.5	98.5	84.1
K-562 [6]	84.1	97.8	105	101	111
KCL-22 [9]	88.5	113	99.1	119	99.3
KG-1 [3]	95.1	108	94.6	112	114
KU-812 [5]	93	103	105	99	97
LAMA-84 [13]	87	108	106	94.9	93.6
ML-2 [10]	92.7	128	92.2	106	105
MOLM-13 [14]	81	117	91.8	127	108
MV4-11 [15]	78.8	112	93.2	102	106
Mono-Mac-6 [7]	92.7	104	91.8	88.2	86.7
NOMO-1 [4]	94.4	106	98.8	94.9	98.2
SHI-1 [1]	95.5	106	101	127	104
THP-1 [8]	91.5	106	102	92.2	110

Details	IC50 (cell viability) [µM]
BV-173 [27]	> 10
HEL [17]	> 10
HL-60 [26]	> 10
K-562 [21]	> 10
KCL-22 [24]	> 10
KG-1 [18]	> 10
KU-812 [20]	> 10
LAMA-84 [28]	> 10
ML-2 [25]	> 10
MOLM-13 [29]	> 10
MV4-11 [30]	> 10
Mono-Mac-6 [22]	> 10
NOMO-1 [19]	> 10
SHI-1 [16]	> 10
THP-1 [23]	> 10
